Reference: ChEMBL document CHEMBL5537110, “SIRT1-dependent mitochondrial biogenesis supports therapeutic effects of 4-butyl-polyhydroxybenzophenone compounds against NAFLD” (Eur J Med Chem, 2023)
Active and inactive are the calls of the source. The rule behind the calls is not given here.

What was measured:
Rattus norvegicus [1] = test: Hepatoprotective activity against high fat diet-fed NAFLD Sprague-Dawley rat model assessed as decrease in serum AST level at 12.3 to 61.4 mg/kg, IG administered via gavage for 4 weeks; format: functional, organism-based; settings: dose 12.3-61.4 mg/kg
HepG2 [2] = test: Inhibition of lipid toxicity in 40% FBS-induced steatosis human HepG2 cells model assessed as decrease in triglyceride content at 0.2 to 5 uM incubated with compound for 24 hrs followed by replacement with steatosis inducing DMEM with 40% FBS medium; format: functional, cell-based; settings: dose 0.2-5 µM
Rattus norvegicus [3] = test: Hepatoprotective activity against high fat diet-fed NAFLD Sprague-Dawley rat model assessed as decrease in serum triglyceride content administered intragastrically via gavage for 4 weeks; format: functional, organism-based; settings: dose 12.3-61.4 mg/kg, route ig
HepG2 [4] = test: Recovery of mitochondrial biogenesis in 40% FBS-induced steatosis human HepG2 cells model assessed as increase in mitochondrial ND6 mRNA expression incubated for 24 hrs by qRT-PCR analysis; format: functional, cell-based; settings: dose 0.2-5 µM
Rattus norvegicus [5] = test: Hepatoprotective activity against high fat diet-fed NAFLD Sprague-Dawley rat model assessed as decrease in liver index administered intragastrically via gavage for 4 weeks; format: functional, organism-based; settings: dose 12.3-61.4 mg/kg, route ig
HepG2 [6] = test: Recovery of mitochondrial biogenesis in 40% FBS-induced steatosis human HepG2 cells model assessed as increase in TFAM protein expression incubated for 24 hrs by western blot analysis; format: functional, cell-based; settings: dose 0.2-5 µM
HepG2 [7] = test: Recovery of mitochondrial biogenesis in 40% FBS-induced steatosis human HepG2 cells model assessed as increase in PGC1alpha protein expression incubated for 24 hrs by western blot analysis; format: functional, cell-based; settings: dose 0.2-5 µM
HepG2 [8] = test: Inhibition of mitochondrial membrane potential dissipation in 40% FBS-induced steatosis human HepG2 cells model assessed as increase in mitochondrial membrane potential incubated with compound for 24 hrs followed by replacement with steatosis inducing DMEM with 40% FBS medium by JC-1 staining based fluorescence microscopy; format: functional, cell-based; settings: Mitochondria, dose 0.2-5 µM
HepG2 [9] = test: Inhibition of liver injury in 40% FBS-induced steatosis human HepG2 cells model assessed as decrease in ALT level at 0.2 to 5 uM incubated with compound for 24 hrs followed by replacement with steatosis inducing DMEM with 40% FBS medium; format: functional, cell-based; settings: dose 0.2-5 µM
Mitochondria = test: Inhibition of mitochondrial dysfunction in 40% FBS-induced steatosis human HepG2 cells model assessed as mitochondria with less swelling and organized mitochondrial cristae at 5 uM incubated for 24 hrs by transmission electron microscopy; format: functional
HepG2 [10] = test: Recovery of energy production in 40% FBS-induced steatosis human HepG2 cells model assessed as upregulation of mitochondrial ATP production incubated in steatosis inducing DMEM with 40% FBS medium for 24 hrs followed by compound treatment by luciferase based assay; format: functional, cell-based; settings: Mitochondria, dose 0.2-5 µM
Rattus norvegicus [11] = test: Hepatoprotective activity against high fat diet-fed NAFLD Sprague-Dawley rat model assessed as decrease in serum LDH level administered intragastrically via gavage for 4 weeks; format: functional, organism-based; settings: dose 12.3-61.4 mg/kg, route ig
HepG2 [12] = test: Inhibition of oxidative stress in 40% FBS-induced steatosis human HepG2 cells model assessed as reduction in mitochondrial ROS production incubated in steatosis inducing DMEM with 40% FBS medium for 24 hrs followed by compound treatment by MitoSOX Red dye based fluorescence microscopy; format: functional, cell-based; settings: Mitochondria, dose 0.2-5 µM
HepG2 [13] = test: Induction of mitochondrial biogenesis in human HepG2 cells assessed as mitochondrial ND6 protein expression incubated for 24 hrs in presence of SIRT1 inhibitor, EX527 by western blot analysis; format: functional, cell-based

Question: `CC(C)(C)c1ccc(C(=O)c2ccc(O)c(O)c2)cc1` was tested. Which Activity (Rattus norvegicus [1]) did it give?
Answer: Active

Question: What about the inhibition (HepG2 [2]) of the same compound?
Answer: Active

Question: What about the Activity (Rattus norvegicus [3]) of the same compound?
Answer: Dose-Dependent Effect

Question: What about the Activity (HepG2 [4]) of the same compound?
Answer: Dose-Dependent Effect

Question: And the Activity (Rattus norvegicus [5])?
Answer: Dose-Dependent Effect

Question: And the Activity (HepG2 [6])?
Answer: Dose-Dependent Effect

Question: What about the Activity (HepG2 [7]) of the same compound?
Answer: Dose-Dependent Effect

Question: And the inhibition (HepG2 [8])?
Answer: Dose-Dependent Effect

Question: And the inhibition (HepG2 [9])?
Answer: Active

Question: And the inhibition (Mitochondria)?
Answer: Active

Question: What about the Activity (HepG2 [10]) of the same compound?
Answer: Dose-Dependent Effect

Question: What about the Activity (Rattus norvegicus [11]) of the same compound?
Answer: Active

Question: What about the inhibition (HepG2 [12]) of the same compound?
Answer: Dose-Dependent Effect

Question: And the Activity (HepG2 [13])?
Answer: inactive
